Measured values reported in patent US12569502B2, “Use of bile acids and derivatives thereof in preparation of GPR39 agonist” (PEKING UNIVERSITY, priority 2019, dated 2026).
Read-outs that look alike come from different tables or passages of the source.

Molecular target: T1, GPR39 receptors on m39-20 cell lines (Mus musculus, UniProt Q5U431, T447P)
T1 construct: P2A-mCherry (C); expressed in transfected cells
T1 sequence (Q5U431 1-456 T447P): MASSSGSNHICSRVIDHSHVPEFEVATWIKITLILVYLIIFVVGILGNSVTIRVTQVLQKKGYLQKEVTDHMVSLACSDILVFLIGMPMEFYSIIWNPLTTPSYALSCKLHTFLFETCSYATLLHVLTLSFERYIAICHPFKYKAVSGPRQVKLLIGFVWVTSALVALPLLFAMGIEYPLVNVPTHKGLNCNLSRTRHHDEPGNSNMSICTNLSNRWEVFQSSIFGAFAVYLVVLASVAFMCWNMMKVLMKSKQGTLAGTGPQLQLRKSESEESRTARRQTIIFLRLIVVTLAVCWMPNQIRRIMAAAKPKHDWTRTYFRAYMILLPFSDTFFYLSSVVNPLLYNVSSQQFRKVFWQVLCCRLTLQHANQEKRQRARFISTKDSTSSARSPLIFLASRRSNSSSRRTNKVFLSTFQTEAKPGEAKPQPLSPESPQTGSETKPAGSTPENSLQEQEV
Test: FLIPR calcium imaging on m39-20 cell lines stably expressing murine-derived GPR39
Format: cell-based
Details: for Bile acid + 4 μM zinc ions Efficacy / Only bile acid Efficacy: activation efficacy; for intracellular calcium signals in m39-20 cell lines: FIG. 1; for change of activation efficacy after the addition of zinc ions: Table 1, FIG. 2
Description: Intracellular calcium imaging is a routine technique to study cell functions, the basic principle of which is to detect the concentration of the calcium ion in tissues or cells using a calcium indicator, thereby reflecting certain reactions in the tissues or cells. In the present application, the intracellular calcium released from a cell line that stably or transiently expresses GPR39 is detected using Fluo8-AM, a calcium fluorescent indicator, so as to determine the activation of the GPR39 receptor by the bile acid and derivative thereof.
HEK293T cells (purchased from ATCC) were seeded in a 6-well plate (coming Co.) at an appropriate density (about 0.5-2×10^5/well). When the cell density reached above 30%, the plasmid PLVXK-mGPR39-P2A-mCherry was transfected with Lipofectamine 3000 (Invitrogen) at a concentration of 2 μg per well. The cells were passaged 24 hours after transfection, the puromycin (gibco) was added into the medium at a concentration of 2 μg/mL for antibiotic screening of cells. After 2-4 days of continuous screening, the cells screened for puromycin resistance were trypsinized and screened by flow cytometry for monoclones with red fluorescence. And these monoclones were seeded in a 96-well plate and cultured in a medium without puromycin for around 10 days. Cell colonies with red fluorescence were sorted under a fluorescence microscope, trypsinized and then passaged and expanded in a 6-well plate. Cell lines m39-20 stably expressing murine-derived GPR39 were obtained through the above methods.
Calcium dye Fluo8-AM (ATT bioquest Co.) was dissolved in DMSO solvent to formulate a stock solution of 1 μg/μL. […] After then, the calcium dye working solution was replaced with the 4K solution (50 μL per well), and acclimated for 5 min at room temperature for the subsequent calcium imaging experiment.
Bile acids and derivatives thereof as listed in Table 1 below were dissolved in dimethyl sulfoxide (DMSO, Sigma Co.) solvent to formulate a stock solution of 50 mM, which was stored at −20° C. During calcium imaging with FLIPR, the drug was diluted with the above 4K solution into a working concentration of 400 μM, and packaged into another 96-well plate. […] The instrument parameters were set so that 50 μL of the drug solution may be added into the culture wells within 2 s. The fluorescence recording result within the first 30 seconds was used as the baseline value. The FLIPR robot arm was programmed to automatically add bile acids and derivatives thereof into the cell sample culture wells at the 31st second. 1% of DMSO solvent was used as the blank control.
After that, the calcium dye working solution was replaced with a 4K solution containing 4 μM zinc ions (50 μL per well), followed by acclimation for 5 min at room temperature.

[1] = Bile acid + 4 μM zinc ions EC50, m39-20 cells, 4 μM zinc ions
[2] = m39-20 cells, no zinc ions, read-out: Only bile acid EC50
[3] = Only bile acid EC50, m39-20 cells, no zinc ions
[4] = m39-20 cells, no zinc ions, read-out: EC50 Only agonist

C[C@H](CCC(=O)O)[C@H]1CC[C@H]2[C@@H]3[C@H](O)C[C@@H]4C[C@H](O)CC[C@]4(C)[C@H]3C[C@H](O)[C@]12C [CA, Cholic acid]
EC50 [1]: 49.2 ± 3.3 µM | Bile acid + 4 μM zinc ions Efficacy (m39-20 cells, 4 μM zinc ions): 99.3 ± 2.1% | Only bile acid Efficacy (m39-20 cells, no zinc ions): 0% | EC50 [2]: > 200 µM

C[C@H](CCC(=O)O)[C@H]1CC[C@H]2[C@@H]3CC[C@@H]4C[C@H](OS(=O)(=O)O)CC[C@]4(C)[C@H]3C[C@H](O)[C@]12C [DCAS]
EC50 [1]: 37.8 ± 1 µM | intracellular calcium signals in m39-20 cell lines: varying extents of intracellular calcium signals | Bile acid + 4 μM zinc ions Efficacy (m39-20 cells, 4 μM zinc ions): 81.9 ± 2.2% | Only bile acid Efficacy (m39-20 cells, no zinc ions): 0% | change of activation efficacy after the addition of zinc ions (m39-20 cells): obviously improved | EC50 [2]: > 200 µM

C[C@H](CCC(=O)NCC(=O)O)[C@H]1CC[C@H]2[C@@H]3[C@H](O)C[C@@H]4C[C@H](O)CC[C@]4(C)[C@H]3C[C@H](O)[C@]12C [GCA]
EC50 [1]: > 100 µM | intracellular calcium signals in m39-20 cell lines: varying extents of intracellular calcium signals | Bile acid + 4 μM zinc ions Efficacy (m39-20 cells, 4 μM zinc ions): 20 ± 2.7% | Only bile acid Efficacy (m39-20 cells, no zinc ions): 0% | change of activation efficacy after the addition of zinc ions (m39-20 cells): obviously improved | EC50 [2]: > 200 µM

C[C@H](CCC(=O)NCC(=O)O)[C@H]1CC[C@H]2[C@@H]3[C@H](O)C[C@@H]4C[C@H](OS(=O)(=O)O)CC[C@]4(C)[C@H]3CC[C@]12C [GCDCAS]
EC50 [1]: > 100 µM | intracellular calcium signals in m39-20 cell lines: varying extents of intracellular calcium signals | Bile acid + 4 μM zinc ions Efficacy (m39-20 cells, 4 μM zinc ions): 58.6 ± 2% | Only bile acid Efficacy (m39-20 cells, no zinc ions): 0% | change of activation efficacy after the addition of zinc ions (m39-20 cells): obviously improved | EC50 [2]: > 200 µM

C[C@H](CCC(=O)NCC(=O)O)[C@H]1CC[C@H]2[C@@H]3[C@H](O)C[C@@H]4C[C@H](O)CC[C@]4(C)[C@H]3CC[C@]12C [GCDCA]
EC50 [1]: 80.6 ± 3.6 µM | intracellular calcium signals in m39-20 cell lines: varying extents of intracellular calcium signals | Bile acid + 4 μM zinc ions Efficacy (m39-20 cells, 4 μM zinc ions): 91.2 ± 4.4% | Only bile acid Efficacy (m39-20 cells, no zinc ions): 16.5 ± 2.4% | change of activation efficacy after the addition of zinc ions (m39-20 cells): obviously improved | EC50 [2]: > 200 µM

C[C@H](CCC(=O)NCC(=O)O)[C@H]1CC[C@H]2[C@@H]3CC[C@@H]4C[C@H](OS(=O)(=O)O)CC[C@]4(C)[C@H]3C[C@H](O)[C@]12C [GDCAS]
EC50 [1]: > 100 µM | intracellular calcium signals in m39-20 cell lines: varying extents of intracellular calcium signals | Bile acid + 4 μM zinc ions Efficacy (m39-20 cells, 4 μM zinc ions): 58.5 ± 4.8% | Only bile acid Efficacy (m39-20 cells, no zinc ions): 0% | change of activation efficacy after the addition of zinc ions (m39-20 cells): obviously improved | EC50 [2]: > 200 µM

C[C@H](CCC(=O)NCC(=O)O)[C@H]1CC[C@H]2[C@@H]3CC[C@@H]4C[C@H](O)CC[C@]4(C)[C@H]3C[C@H](O)[C@]12C [GDCA]
EC50 [1]: 46 ± 10.3 µM | intracellular calcium signals in m39-20 cell lines: varying extents of intracellular calcium signals | Bile acid + 4 μM zinc ions Efficacy (m39-20 cells, 4 μM zinc ions): 86.4 ± 6.3% | Only bile acid Efficacy (m39-20 cells, no zinc ions): 7.7 ± 1.7% | change of activation efficacy after the addition of zinc ions (m39-20 cells): obviously improved | EC50 [2]: > 200 µM

C[C@H](CCC(=O)NCC(=O)O)[C@H]1CC[C@H]2[C@@H]3CC[C@@H]4C[C@H](O)CC[C@]4(C)[C@H]3CC[C@]12C [GLCA]
EC50 [1]: 13.5 ± 3.4 µM | intracellular calcium signals in m39-20 cell lines: varying extents of intracellular calcium signals | EC50 [3]: > 200 µM | Bile acid + 4 μM zinc ions Efficacy (m39-20 cells, 4 μM zinc ions): 74 ± 4.1% | Only bile acid Efficacy (m39-20 cells, no zinc ions): 0% | change of activation efficacy after the addition of zinc ions (m39-20 cells): obviously improved

C[C@H](CCC(=O)NCC(=O)O)[C@H]1CC[C@H]2[C@@H]3[C@@H](O)C[C@@H]4C[C@H](O)CC[C@]4(C)[C@H]3CC[C@]12C [GUDCA]
EC50 [1]: > 100 µM | intracellular calcium signals in m39-20 cell lines: varying extents of intracellular calcium signals | Bile acid + 4 μM zinc ions Efficacy (m39-20 cells, 4 μM zinc ions): 35.3 ± 6.8% | Only bile acid Efficacy (m39-20 cells, no zinc ions): 0% | change of activation efficacy after the addition of zinc ions (m39-20 cells): obviously improved | EC50 [2]: > 200 µM

C[C@H](CCC(=O)O)[C@H]1CC[C@H]2[C@@H]3CC[C@@H]4C[C@H](O)CC[C@]4(C)[C@H]3CC[C@]12C [LCA, Lithocholic acid]
EC50 [1]: > 100 µM | Bile acid + 4 μM zinc ions Efficacy (m39-20 cells, 4 μM zinc ions): 1.3 ± 1.1% | Only bile acid Efficacy (m39-20 cells, no zinc ions): 0% | EC50 [2]: > 200 µM

C[C@H](CCC(=O)NCCS(=O)(=O)O)[C@H]1CC[C@H]2[C@@H]3[C@H](O)C[C@@H]4C[C@H](O)CC[C@]4(C)[C@H]3C[C@H](O)[C@]12C [TCA]
EC50 [1]: > 100 µM | intracellular calcium signals in m39-20 cell lines: varying extents of intracellular calcium signals | EC50 [3]: > 200 µM | Bile acid + 4 μM zinc ions Efficacy (m39-20 cells, 4 μM zinc ions): 31.8 ± 3% | Only bile acid Efficacy (m39-20 cells, no zinc ions): 0% | change of activation efficacy after the addition of zinc ions (m39-20 cells): obviously improved

C[C@H](CCC(=O)NCCS(=O)(=O)O)[C@H]1CC[C@H]2[C@@H]3[C@H](O)C[C@@H]4C[C@H](OS(=O)(=O)O)CC[C@]4(C)[C@H]3CC[C@]12C [TCDCAS]
EC50 [1]: > 100 µM | intracellular calcium signals in m39-20 cell lines: varying extents of intracellular calcium signals | Bile acid + 4 μM zinc ions Efficacy (m39-20 cells, 4 μM zinc ions): 39.7 ± 3.3% | Only bile acid Efficacy (m39-20 cells, no zinc ions): 0% | change of activation efficacy after the addition of zinc ions (m39-20 cells): obviously improved | EC50 [2]: > 200 µM

C[C@H](CCC(=O)NCCS(=O)(=O)O)[C@H]1CC[C@H]2[C@@H]3CC[C@@H]4C[C@H](OS(=O)(=O)O)CC[C@]4(C)[C@H]3C[C@H](O)[C@]12C [TDCAS]
EC50 [1]: > 100 µM | intracellular calcium signals in m39-20 cell lines: varying extents of intracellular calcium signals | Bile acid + 4 μM zinc ions Efficacy (m39-20 cells, 4 μM zinc ions): 60.1 ± 5.5% | Only bile acid Efficacy (m39-20 cells, no zinc ions): 0% | change of activation efficacy after the addition of zinc ions (m39-20 cells): obviously improved | EC50 [2]: > 200 µM

C[C@H](CCC(=O)NCCS(=O)(=O)O)[C@H]1CC[C@H]2[C@@H]3CC[C@@H]4C[C@H](O)CC[C@]4(C)[C@H]3C[C@H](O)[C@]12C [TDCA]
EC50 [1]: 27.6 ± 7.1 µM | intracellular calcium signals in m39-20 cell lines: varying extents of intracellular calcium signals | Bile acid + 4 μM zinc ions Efficacy (m39-20 cells, 4 μM zinc ions): 99.3 ± 1.7% | Only bile acid Efficacy (m39-20 cells, no zinc ions): 22.8 ± 3% | change of activation efficacy after the addition of zinc ions (m39-20 cells): obviously improved | EC50 [2]: > 200 µM

CNc1nc(NCc2ccc(NS(C)(=O)=O)cc2Cl)cc(-c2ccccn2)n1 [TG-G 1008, reference compound]
EC50 (EC50 Agonist + 4 μM zinc ions, m39-20 cells, 4 μM zinc ions): 1.5 µM | EC50 [4]: 39 µM

C[C@H](CCC(=O)NCCS(=O)(=O)O)[C@H]1CC[C@H]2[C@@H]3CC[C@@H]4C[C@H](O)CC[C@]4(C)[C@H]3CC[C@]12C [TLCA]
EC50 [1]: 8.1 ± 2.4 µM | intracellular calcium signals in m39-20 cell lines: varying extents of intracellular calcium signals | Bile acid + 4 μM zinc ions Efficacy (m39-20 cells, 4 μM zinc ions): 103.5 ± 1.1% | Only bile acid Efficacy (m39-20 cells, no zinc ions): 47.8 ± 1.1% | EC50 [2]: 44 ± 10 µM

CCCCCCCCC=CCCCCCCCC(=O)OCC(CO)OC(=O)CCCCCCCC=CCCCCCCCC (stereo not drawn) [TM-N 1324, reference compound]
EC50 [4]: 42.9 µM | EC50 (read-out: EC50 Agonist + 4 μM zinc ions, m39-20 cells, 4 μM zinc ions): 3.5 µM

C[C@H](CCC(=O)NCCS(=O)(=O)O)[C@H]1CC[C@H]2[C@@H]3[C@@H](O)C[C@@H]4C[C@H](OS(=O)(=O)O)CC[C@]4(C)[C@H]3CC[C@]12C [TUDCAS]
EC50 [1]: > 100 µM | intracellular calcium signals in m39-20 cell lines: varying extents of intracellular calcium signals | Bile acid + 4 μM zinc ions Efficacy (m39-20 cells, 4 μM zinc ions): 31.4 ± 3.2% | Only bile acid Efficacy (m39-20 cells, no zinc ions): 0% | change of activation efficacy after the addition of zinc ions (m39-20 cells): obviously improved | EC50 [2]: > 200 µM

C[C@H](CCC(=O)O)[C@H]1CC[C@H]2[C@@H]3[C@@H](O)C[C@@H]4C[C@H](O)CC[C@]4(C)[C@H]3CC[C@]12C [UDCA, Ursodeoxycholic acid]
EC50 [1]: > 100 µM | Bile acid + 4 μM zinc ions Efficacy (m39-20 cells, 4 μM zinc ions): 58.5 ± 4% | Only bile acid Efficacy (m39-20 cells, no zinc ions): 0% | EC50 [2]: > 200 µM
